Results published in PubChem BioAssay AID1963837 (Molecular Pharmacology Branch, DTP, NCI, 2024).

Test system: 843126-344-R-J1-PDC complex spheroid viability
Experiment: Anticancer human tumor 843126-344-R-J1-PDC patient-derived melanoma cell line growth inhibition [POLQ]
Conditions: for IC50: curve of first compound; for viability, T/C: stronger effect = lower value
In short: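 Patient-derived tumour cells were co-cultured with HUVEC and mesenchymal stem cells as multicellular spheroids at 37 °C. They were treated with POLQ inhibitors (novobiocin, ART-558, RP6685) alone or combined with other agents. Top concentrations were at or near clinical Cmax (otherwise 10 microM; SN-38 at 1 microM), decreasing in half-log steps.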

[1] = second compound 0.0316 µM, first compound 0.0316 µM
[2] = second compound 0.0316 µM, first compound 0.1 µM
[3] = second compound 0.0316 µM, first compound 0.316 µM
[4] = second compound 0.0316 µM, first compound 1 µM
[5] = second compound 0.0316 µM, first compound 3.16 µM
[6] = second compound 0.0316 µM, first compound 10 µM
[7] = second compound 0.1 µM, first compound 0.0316 µM
[8] = second compound 0.1 µM, first compound 0.1 µM
[9] = second compound 0.1 µM, first compound 0.316 µM
[10] = second compound 0.1 µM, first compound 1 µM
[11] = second compound 0.1 µM, first compound 3.16 µM
[12] = second compound 0.1 µM, first compound 10 µM
[13] = second compound 0.316 µM, first compound 0.0316 µM
[14] = second compound 0.316 µM, first compound 0.1 µM
[15] = second compound 0.316 µM, first compound 0.316 µM
[16] = second compound 0.316 µM, first compound 1 µM
[17] = second compound 0.316 µM, first compound 3.16 µM
[18] = second compound 0.316 µM, first compound 10 µM
[19] = second compound 1 µM, first compound 0.0316 µM
[20] = second compound 1 µM, first compound 0.1 µM
[21] = second compound 1 µM, first compound 0.316 µM
[22] = second compound 1 µM, first compound 1 µM
[23] = second compound 1 µM, first compound 3.16 µM
[24] = second compound 1 µM, first compound 10 µM
[25] = second compound 3.16 µM, first compound 0.0316 µM
[26] = second compound 3.16 µM, first compound 0.1 µM
[27] = second compound 3.16 µM, first compound 0.316 µM
[28] = second compound 3.16 µM, first compound 1 µM
[29] = second compound 3.16 µM, first compound 3.16 µM
[30] = second compound 3.16 µM, first compound 10 µM
[31] = second compound 10 µM, first compound 0.0316 µM
[32] = second compound 10 µM, first compound 0.1 µM
[33] = second compound 10 µM, first compound 0.316 µM
[34] = second compound 10 µM, first compound 1 µM
[35] = second compound 10 µM, first compound 3.16 µM
[36] = second compound 10 µM, first compound 10 µM
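Throughout, for viability, T/C: spheroids exposed to drugs for seven days before readout.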

CC(C)n1c(=O)n(C)c2cnc3cc(F)c(-c4ccc(OCCCN5CCCCC5)nc4)cc3c21 + Nc1ccc(C#CCN(C(=O)Cc2ncc(C(F)(F)F)cc2C(F)(F)F)c2ccc(F)cc2)nn1
IC50 (second compound 0.0316 µM): > 10 µM | IC50 (second compound 0.1 µM): > 10 µM | IC50 (second compound 0.316 µM): > 10 µM | IC50 (second compound 1 µM): > 10 µM | IC50 (second compound 3.16 µM): > 10 µM | IC50 (second compound 10 µM): > 10 µM | viability, T/C [1]: 91.9% | viability, T/C [2]: 74% | viability, T/C [3]: 86.2% | viability, T/C [4]: 92.6% | viability, T/C [5]: 81.5% | viability, T/C [6]: 77.8% | viability, T/C [7]: 93.8% | viability, T/C [8]: 92.4% | viability, T/C [9]: 77.7% | viability, T/C [10]: 84.6% | viability, T/C [11]: 90.7% | viability, T/C [12]: 70.6% | viability, T/C [13]: 80.8% | viability, T/C [14]: 95.4% | viability, T/C [15]: 94.5% | viability, T/C [16]: 85.7% | viability, T/C [17]: 89.2% | viability, T/C [18]: 71.6% | viability, T/C [19]: 89.3% | viability, T/C [20]: 85.7% | viability, T/C [21]: 90.9% | viability, T/C [22]: 93.5% | viability, T/C [23]: 81% | viability, T/C [24]: 64.1% | viability, T/C [25]: 76.5% | viability, T/C [26]: 84% | viability, T/C [27]: 88.9% | viability, T/C [28]: 82.8% | viability, T/C [29]: 81.8% | viability, T/C [30]: 81% | viability, T/C [31]: 85.3% | viability, T/C [32]: 73.2% | viability, T/C [33]: 86.8% | viability, T/C [34]: 91.4% | viability, T/C [35]: 78.3% | viability, T/C [36]: 67.8%

CC1COCCN1c1cc(C2(S(C)(=N)=O)CC2)nc(-c2ccnc3[nH]ccc23)n1 (stereo unspecified) + COC1C(OC(N)=O)C(O)C(Oc2ccc3c(O)c(NC(=O)c4ccc(O)c(CC=C(C)C)c4)c(=O)oc3c2C)OC1(C)C
IC50 (second compound 0.0316 µM): > 10 µM | IC50 (second compound 0.1 µM): > 10 µM | IC50 (second compound 0.316 µM): > 10 µM | IC50 (second compound 1 µM): 8.62 µM | IC50 (second compound 3.16 µM): 9.28 µM | IC50 (second compound 10 µM): 9.69 µM | viability, T/C [1]: 99% | viability, T/C [2]: 98% | viability, T/C [3]: 110% | viability, T/C [4]: 99.6% | viability, T/C [5]: 59.2% | viability, T/C [6]: 55.9% | viability, T/C [7]: 90.9% | viability, T/C [8]: 80.3% | viability, T/C [9]: 97.6% | viability, T/C [10]: 80.6% | viability, T/C [11]: 65.7% | viability, T/C [12]: 55.3% | viability, T/C [13]: 103% | viability, T/C [14]: 79.8% | viability, T/C [15]: 81.2% | viability, T/C [16]: 89% | viability, T/C [17]: 56.9% | viability, T/C [18]: 53.5% | viability, T/C [19]: 84.6% | viability, T/C [20]: 88.3% | viability, T/C [21]: 78.5% | viability, T/C [22]: 96.3% | viability, T/C [23]: 69.2% | viability, T/C [24]: 47.1% | viability, T/C [25]: 87.1% | viability, T/C [26]: 89.1% | viability, T/C [27]: 89% | viability, T/C [28]: 79.5% | viability, T/C [29]: 74% | viability, T/C [30]: 48% | viability, T/C [31]: 94.8% | viability, T/C [32]: 101% | viability, T/C [33]: 74.1% | viability, T/C [34]: 89.7% | viability, T/C [35]: 69.3% | viability, T/C [36]: 48.7%

COc1cc2cc(C(=O)CCC(=O)O)sc2cc1OC + COC1C(OC(N)=O)C(O)C(Oc2ccc3c(O)c(NC(=O)c4ccc(O)c(CC=C(C)C)c4)c(=O)oc3c2C)OC1(C)C
IC50 (second compound 0.0316 µM): > 10 µM | IC50 (second compound 0.1 µM): > 10 µM | IC50 (second compound 0.316 µM): > 10 µM | IC50 (second compound 1 µM): > 10 µM | IC50 (second compound 3.16 µM): > 10 µM | IC50 (second compound 10 µM): > 10 µM | viability, T/C [1]: 93.2% | viability, T/C [2]: 82.8% | viability, T/C [3]: 99.1% | viability, T/C [4]: 89.6% | viability, T/C [5]: 94.1% | viability, T/C [6]: 87.2% | viability, T/C [7]: 97.5% | viability, T/C [8]: 112% | viability, T/C [9]: 103% | viability, T/C [10]: 91% | viability, T/C [11]: 108% | viability, T/C [12]: 94.4% | viability, T/C [13]: 91.8% | viability, T/C [14]: 104% | viability, T/C [15]: 121% | viability, T/C [16]: 117% | viability, T/C [17]: 89% | viability, T/C [18]: 84.4% | viability, T/C [19]: 96.1% | viability, T/C [20]: 92.7% | viability, T/C [21]: 87.3% | viability, T/C [22]: 85.6% | viability, T/C [23]: 96% | viability, T/C [24]: 87.2% | viability, T/C [25]: 97.3% | viability, T/C [26]: 93.5% | viability, T/C [27]: 81.4% | viability, T/C [28]: 108% | viability, T/C [29]: 97.7% | viability, T/C [30]: 109% | viability, T/C [31]: 98.8% | viability, T/C [32]: 92.7% | viability, T/C [33]: 97.8% | viability, T/C [34]: 110% | viability, T/C [35]: 107% | viability, T/C [36]: 90.9%
